{"source": "ChEMBL document CHEMBL1123040", "about": "“Molecular mechanism of action of 5,6-dihydroxytryptamine. Synthesis and biological evaluation of 4-methyl-, 7-methyl-, and 4,7-dimethyl-5,6-dihydroxytryptamines” (J Med Chem, 1985)", "key": {"[1]": {"target": "T1, Sodium-dependent serotonin transporter (Rattus norvegicus, UniProt P31652)", "T1 sequence (P31652 whole entry)": "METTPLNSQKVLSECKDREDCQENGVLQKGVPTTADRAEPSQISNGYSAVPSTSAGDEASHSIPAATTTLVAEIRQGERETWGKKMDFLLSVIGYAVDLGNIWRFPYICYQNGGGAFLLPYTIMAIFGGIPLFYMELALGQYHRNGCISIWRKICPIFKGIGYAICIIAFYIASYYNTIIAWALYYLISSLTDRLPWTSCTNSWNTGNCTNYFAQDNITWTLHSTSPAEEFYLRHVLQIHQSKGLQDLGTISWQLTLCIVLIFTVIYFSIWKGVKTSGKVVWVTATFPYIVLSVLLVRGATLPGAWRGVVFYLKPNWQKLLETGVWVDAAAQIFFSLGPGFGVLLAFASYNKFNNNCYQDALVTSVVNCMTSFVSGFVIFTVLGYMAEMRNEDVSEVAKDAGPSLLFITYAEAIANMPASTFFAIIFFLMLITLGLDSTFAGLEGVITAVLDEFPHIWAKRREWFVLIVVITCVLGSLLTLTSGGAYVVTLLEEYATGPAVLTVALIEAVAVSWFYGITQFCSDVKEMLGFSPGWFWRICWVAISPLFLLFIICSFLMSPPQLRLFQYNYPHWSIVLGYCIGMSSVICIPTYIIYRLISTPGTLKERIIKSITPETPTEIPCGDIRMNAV", "test": "Inhibitory activity against incorporation of [3H]5-HT transporter uptake into the differentiated N-2a cells.", "format": "cell-based"}, "[2]": {"target": "T1, Sodium-dependent serotonin transporter", "test": "Inhibitory activity against incorporation of Serotonin transporter uptake into the differentiated N-2a cells.", "format": "cell-based"}}}
{"smiles": "Cc1c(O)c(O)cc2c(CCN)c[nH]c12", "values": [{"measurement": "IC50", "setting": "[1]", "value": 51.8, "unit": "µM"}]}
{"smiles": "Cc1c(O)c(O)c(C)c2c(CCN)c[nH]c12", "values": [{"measurement": "IC50", "setting": "[1]", "value": 19.7, "unit": "µM"}]}
{"smiles": "Cc1c(O)c(O)cc2[nH]cc(CCN)c12", "values": [{"measurement": "IC50", "setting": "[1]", "value": 23, "unit": "µM"}]}
{"smiles": "NCCc1c[nH]c2cc(O)c(O)cc12", "values": [{"measurement": "IC50", "setting": "[2]", "value": 6, "unit": "µM"}]}
